According to patent US20220267376A1, “P53 ACTIVATOR PEPTIDOMIMETIC MACROCYCLES” (Merck Sharp & Dohme Corp., priority 2019, published 2022):
Entries after “also recorded” stand apart in the source; their conditions may differ. Like-named read-outs stand apart in the source and are kept apart here. Starred links: 1 amine or outer side, 2 acyl side, 3 side chain; linkers in the order of their positions; H or OH if unused. Positions of bridges follow the written chain, without caps; N, C: chain ends. Non-standard residues stand in square brackets, D forms with d. Residues, ends and D or L forms follow the SMILES beside them. No end group written: not given here. ξ: configuration not given here. dPhe(4-CF3) = N[C@H](Cc1ccc(C(F)(F)F)cc1)C(=O)O; dTrp(6-F) = N[C@H](Cc1c[nH]c2cc(F)ccc12)C(=O)O; ξPhe(4-CF3) = NC(Cc1ccc(C(F)(F)F)cc1)C(=O)O; X1 = C[C@](CCCCC=[*:3])(N[*:1])C(=O)[*:2]; S8 = C=CCCCCCC[C@](C)(N)C(=O)O; R5 = C=CCCC[C@@](C)(N)C(=O)O; S5 = C=CCCC[C@](C)(N)C(=O)O

T1: MDM4 (Homo sapiens, UniProt O15151)
T1 construct: GST; made in house
T1 sequence (O15151 1-490): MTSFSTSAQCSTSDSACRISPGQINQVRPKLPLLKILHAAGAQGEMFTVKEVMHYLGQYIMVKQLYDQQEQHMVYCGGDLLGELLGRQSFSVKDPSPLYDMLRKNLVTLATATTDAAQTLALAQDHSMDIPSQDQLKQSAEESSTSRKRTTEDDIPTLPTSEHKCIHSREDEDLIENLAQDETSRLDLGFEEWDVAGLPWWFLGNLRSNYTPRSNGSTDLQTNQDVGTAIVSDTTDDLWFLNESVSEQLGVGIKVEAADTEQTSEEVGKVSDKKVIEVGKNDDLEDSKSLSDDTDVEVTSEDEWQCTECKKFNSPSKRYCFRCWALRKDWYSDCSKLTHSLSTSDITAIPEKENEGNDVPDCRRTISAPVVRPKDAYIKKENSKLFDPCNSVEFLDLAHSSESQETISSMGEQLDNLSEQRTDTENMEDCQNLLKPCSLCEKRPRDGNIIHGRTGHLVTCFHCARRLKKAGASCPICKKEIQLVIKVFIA

B1: ^DPMI-δ(1-5) (peptide)
peptide: XAXYXNXEKLLR
modifications: all alpha-amino acids have a D configuration; Xaa1 is R5 and Xaa5 is R5 ((R)-2-(4'-pentenyl)-alanine), joined by a hydrocarbon staple; Xaa3 is 6-F-Trp; Xaa7 is p-CF3-Phe; Xaa12 optionally has a C-terminal amide; Xaa1 optionally has a N-terminal acyl
B2: ^DPMI-δ(2-9) (peptide)
peptide: [dT][S8][dTrp(6-F)][dY][dA][dN][dPhe(4-CF3)][dE][R5][dL][dL][dR]-NH2
modifications: staple 2-9
B3: ^DPMI-δ(2-6) (peptide)
peptide: [dT][R5][dTrp(6-F)][dY][dA][R5][dPhe(4-CF3)][dE][dK][dL][dL][dR]-NH2
modifications: staple 2-6

Legend:
[1] = Circular dichroism (CD) helicity of peptide in solution; format: physicochemical; conditions: 25° C.
Experimental: Prior to the experiment, 5 μl of the 10 mM stock peptide was mixed with 45 μl of 100% methanol, and dried for 2 hours in the SpeedVac concentrator (Thermo Scientific). The dried peptide was reconstituted in buffer, containing 1 mM HEPES pH 7.4 and 5% methanol, to a concentration of 1 mM. The peptide sample was placed in a quartz cuvette with a path length of 0.2 cm and the CD spectrum was recorded from 300 to 190 nm at 25° C., using the Chirascan-plus qCD machine (Applied Photophysics). […] An estimate of the secondary stmcture components of the peptide was carried out by converting the CD spectrum to mean residue ellipticity, before deconvoluting using the CDNN software (distributed by Applied Photophysics). All experiments were done in duplicates.

MDM2 [2] = molecular target: T2, MDM2 (Homo sapiens, UniProt Q00987); test: MDM2 binding assay, fluorescence polarization (FP) competition; conditions: for Kd: apparent Kd, competition with FAM-labeled 12/1 peptide
T2 construct: GST (N); His6 (N); made in house; host or cells: E. coli BL21 (DE3) Rosetta T1R

MDM4 = molecular target: T1, MDM4; test: Fluorescence polarization (FP) binding to MDM4/MDMX; conditions: for Kd: FP assay, MDM4 (MDMX)
MDM2 [3] = molecular target: T2, MDM2; test: Surface plasmon resonance (SPR) binding to MDM2; conditions: for Kd: MDM2
[4] = tested on: HCT116 p53 reporter cells; test: p53 beta-lactamase reporter gene assay; format: cell-based; conditions: for EC50: read-out: P53 activity EC50 (μM) (2% FBS) 16 H, HCT116 p53 reporter, 2% FBS, 16 H; for p53 activation in reporter cells: 16 hours, up to 50 μM
Experimental: The cells were incubated overnight and followed by removal of cell growth media and replaced with Opti-MEM either containing 0% FBS or 10% FBS. […] Measurements were done using Envision multiplate reader (Perkin-Elmer).

[5] = tested on: Jump-In™ T-REx™ CHO-K1 BLA cells; test: Tetracycline beta-lactamase reporter gene assay (counterscreen); format: cell-based; conditions: for EC50: read-out: Counterscreen EC50 (μM) (2% FBS) 16 H, 2% FBS, 16 H
Experimental: Cells were seeded into a 384-well plate a density of 4000 cells per well. […] Measurements were carried out using Envision multiplate reader (Perkin-Elmer).

[6] = molecular target: T3, human MDM2 protein (amino acids 1-125) (Homo sapiens, UniProt Q00987); test: Isothermal titration calorimetry (ITC) with MDM2; format: binding; parameters: purified recombinant human MDM2 protein (amino acids 1-125); GST (N); His6 (N); TEV cleavage site ENLYFQG (N); made in house; host or cells: E. coli BL21 (DE3) Rosetta T1R; conditions: for ITC TΔS / ITC ΔG: binding to MDM2; for ITC ΔH: enthalpy of binding to MDM2
Target sequence in this assay (Q00987 1-125): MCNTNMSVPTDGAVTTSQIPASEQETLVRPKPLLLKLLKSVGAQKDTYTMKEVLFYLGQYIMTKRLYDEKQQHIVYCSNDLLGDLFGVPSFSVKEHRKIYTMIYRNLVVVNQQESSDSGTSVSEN
Experimental: All experiments were performed in duplicates using the MicroCal PEAQ-ITC Automated system. […] For peptides that are insoluble at high concentrations, reverse ITC was carded out by titrating 200 μM of MDM2 protein into 20 μM of peptide. […] Data analysis was carried out using the MicroCal PEAQ-ITC Analysis Software.

HCT116 cells = test: Lactate dehydrogenase (LDH) release assay; format: cell-based; conditions: up to 50 μM
Experimental: The cells were incubated overnight followed by removal of cell media and addition of Opti-MEM Medium without FBS. Cells were then treated with peptides for 4/16 hours in Opti-MEM either in 10% FBS or serum free. Final concentration of DMSO was 0.5%. […] Measurements were carried out using Tecan plate reader.

[7] = molecular target: T3, human MDM2 protein (amino acids 1-125); test: cell-based or functional assay
Target sequence in this assay (Q00987 1-125 limits assumed): as the sequence (Q00987 1-125) above

[8] = molecular target: T3, human MDM2 protein (amino acids 1-125); test: SPR, biotinylated MDM2 on streptavidin, peptide as analyte
Target sequence in this assay (Q00987 1-125 limits assumed): as the sequence (Q00987 1-125) above

[9] = molecular target: T3, human MDM2 protein (amino acids 1-125); test: fluorescence anisotropy competition: unlabeled peptide titrated against the complex of MDM2 (250 nM) and FAM-labeled 12/1 peptide (50 nM)
Target sequence in this assay (Q00987 1-125 limits assumed): as the sequence (Q00987 1-125) above

MDM4 protein (human) = MDM4 protein (human) (UniProt O15151); test: fluorescence polarization assay on MDM4 (anisotropy falls with the peptide concentration; the labeled tracer used with MDM4 is not given)
[10] = molecular target: T3, human MDM2 protein (amino acids 1-125); test: fluorescence polarization competition, FAM-12/1 tracer, MDM2
Target sequence in this assay (Q00987 1-125 limits assumed): as the sequence (Q00987 1-125) above

Molecule | CD (% helicity) [1] [%] | Kd (MDM2 [3]; Table 1) [nM] | Kd (MDM2 [3]; Table 2) [nM] | EC50 [5] [µM] | LDH leakage (HCT116 cells) | binding to MDM2 in FP assay (MDM2 [2]) | binding to MDMX in FP assay (MDM4) | p53 activation in reporter cells [4] | P53 activity EC50 (µM) (2% FBS) 16 H [7] | further results
CC(C)C[C@@H](NC(=O)[C@@H](CC(C)C)NC(=O)[C@@H](CCCCN)NC(=O)[C@@H](CCC(=O)O)NC(=O)[C@@H](Cc1ccc(C(F)(F)F)cc1)NC(=O)[C@@H](CC(N)=O)NC(=O)[C@@]1(C)CCCCCC/C=C\CCC[C@@](C)(N)C(=O)N[C@H](C)C(=O)N[C@H](Cc2c[nH]c3cc(F)ccc23)C(=O)N[C@H](Cc2ccc(O)cc2)C(=O)N1)C(=O)N[C@H](CCCNC(=N)N)C(N)=O [^DPMI-δ (1-5)] | 24.7 | < 1 | < 1 | ≥ 50 |  |  |  |  |  | Kd (MDM2 [2]): 13.2 nM; Kd (MDM4): 4.5 nM; EC50 [4]: 13.7 µM; EC50 ([4]; listed as DPMI-δ(1-5)): 17.5 µM; counterscreen activity [5]: didn't exhibit activity; ITC TΔS [6]: 3.04 kcal/mol; ITC ΔG [6]: -11.6 kcal/mol; ITC ΔH [6]: -15.8 kcal/mol
CC(C)C[C@H]1NC(=O)[C@@H](CC(C)C)NC(=O)[C@@](C)(NC(=O)[C@@H](CCC(=O)O)NC(=O)[C@@H](Cc2ccc(C(F)(F)F)cc2)NC(=O)[C@@H](CC(N)=O)NC(=O)[C@@]2(C)CCC/C=C\CCC[C@@](C)(N)C(=O)N[C@H](C)C(=O)N[C@H](Cc3c[nH]c4cc(F)ccc34)C(=O)N[C@H](Cc3ccc(O)cc3)C(=O)N2)CCC/C=C\CCC[C@](C)(C(N)=O)NC1=O [^DPMI-δ (1-5,9-12)] (H-[R5][dA][dTrp(6-F)][dY][R5][dN][dPhe(4-CF3)][dE][S5][dL][dL][R5]-NH2; staple (Z) 1-5, 9-12) | 20 | < 1 | < 1 | ≥ 50 | No detectable LDH leakage |  |  |  |  | Kd (MDM4): 2.1 nM; EC50 [4]: 34.6 µM; counterscreen activity [5]: negligible counter screen activity
CC(C)C[C@@H](NC(=O)[C@@]1(C)CCC/C=C\CCC[C@@](C)(NC(=O)[C@@H](C)NC(=O)[C@@H](Cc2ccc(O)cc2)NC(=O)[C@@H](Cc2c[nH]c3cc(F)ccc23)NC(=O)[C@@H](C)NC(=O)[C@H](N)[C@H](C)O)C(=O)N[C@H](Cc2ccc(C(F)(F)F)cc2)C(=O)N[C@H](CCC(=O)O)C(=O)N[C@H](CCCCN)C(=O)N1)C(=O)N[C@H](CCCNC(=N)N)C(N)=O [^DPMI-δ (6-10)] | 39.9 | 59 |  |  |  | no binding; also recorded: non-binder | no binding |  |  | ITC TΔS [6]: -1.86 kcal/mol; ITC ΔG [6]: -11.2 kcal/mol; ITC ΔH [6]: -9.35 kcal/mol
CC(C)C[C@@H](NC(=O)[C@@H](CC(C)C)NC(=O)[C@@]1(C)CCC/C=C\CCCCCC[C@](C)(NC(=O)[C@H](N)[C@H](C)O)C(=O)N[C@H](Cc2c[nH]c3cc(F)ccc23)C(=O)N[C@H](Cc2ccc(O)cc2)C(=O)N[C@H](C)C(=O)N[C@H](CC(N)=O)C(=O)NC(Cc2ccc(C(F)(F)F)cc2)C(=O)N[C@H](CCC(=O)O)C(=O)N1)C(=O)N[C@H](CCCNC(=N)N)C(N)=O (stereo partly drawn) [^DPMI-(2-9)] (H-[dT][S8][dTrp(6-F)][dY][dA][dN][ξPhe(4-CF3)][dE][R5][dL][dL][dR]-NH2; staple (Z) 2-9) | 26.5 | 7.4 |  | ≥ 50 | did not cause LDH leakage | no binding | no binding | unable to activate cellular p53 |  | Kd (MDM2 [2]): 3350 nM
CC(C)C[C@@H](NC(=O)[C@@H](CC(C)C)NC(=O)[C@@]1(C)CCCC/C=C\CCC[C@@](C)(NC(=O)[C@@H](Cc2ccc(O)cc2)NC(=O)[C@@H](Cc2c[nH]c3cc(F)ccc23)NC(=O)[C@@H](C)NC(=O)[C@H](N)[C@H](C)O)C(=O)N[C@H](CC(N)=O)C(=O)N[C@H](Cc2ccc(C(F)(F)F)cc2)C(=O)N[C@H](CCC(=O)O)C(=O)N1)C(=O)N[C@H](CCCNC(=N)N)C(N)=O [^DPMI-δ (5-9)] (H-[dT][dA][dTrp(6-F)][dY][R5][dN][dPhe(4-CF3)][dE][X1][dL][dL][dR]-NH2; staple (Z) 5-9) | 38.0 | 29 |  | 47 | did not cause LDH leakage | no binding | no binding | unable to activate cellular p53 |  | 
CC(C)C[C@@H](NC(=O)[C@@H](CC(C)C)NC(=O)[C@@H](CCCCN)NC(=O)[C@@H](CCC(=O)O)NC(=O)[C@@H](Cc1ccc(C(F)(F)F)cc1)NC(=O)[C@@]1(C)CCC/C=C\CCC[C@@](C)(NC(=O)[C@H](N)[C@H](C)O)C(=O)N[C@H](Cc2c[nH]c3cc(F)ccc23)C(=O)N[C@H](Cc2ccc(O)cc2)C(=O)N[C@H](C)C(=O)N1)C(=O)N[C@H](CCCNC(=N)N)C(N)=O [^DPMI-δ (2-6)] (H-[dT][R5][dTrp(6-F)][dY][dA][R5][dPhe(4-CF3)][dE][dK][dL][dL][dR]-NH2; staple (Z) 2-6) | 46.7 | > 500 | > 500 | 13.9 |  | no binding | no binding | unable to activate cellular p53 |  | binding to MDM2 in SPR (MDM2 [3]): non-binder
CC(C)C[C@@H](NC(=O)[C@@H](CC(C)C)NC(=O)[C@@H](CCCCN)NC(=O)[C@@H](CCC(=O)O)NC(=O)[C@@H](Cc1ccc(C(F)(F)F)cc1)NC(=O)[C@@H](CC(N)=O)NC(=O)[C@@H](C)NC(=O)[C@@H](Cc1ccc(O)cc1)NC(=O)[C@@H](Cc1c[nH]c2cc(F)ccc12)NC(=O)[C@@H](C)NC(=O)[C@H](N)[C@H](C)O)C(=O)N[C@H](CCCNC(=N)N)C(N)=O [^DPMI-δ, reference compound] |  |  |  |  |  |  |  | no p53 activation |  | 
B1 |  |  |  |  |  |  |  |  | 13.7 | cellular activation of p53, EC50 (HCT116 p53 reporter cells) [7]: 17500 nM; Kd [8]: < 1 nM; IC50 (read off the curve) [9]: 500 nM; IC50 (read off the curve) (MDM4 protein (human)): 600 nM
B2 |  |  |  |  |  |  |  |  | > 50 | 
B3 |  |  |  |  |  |  |  |  | > 50 | Kd [8]: > 500 nM; Kd [10]: > 10000 nM
